Experimental data: patent US20240279232A1, “USE OF SUBSTITUTED 5-(4-METHYL-6-PHENYL-4H-BENZO[F]IMIDAZO[1,5-A][1,4] DIAZEPIN-3-YL)-1,2,4-O[…] THE TREATMENT OF INFLAMMATORY CONDITIONS” (priority 2021, published 2024)
Where two headings read alike, the source gives them in different places.

What was measured:
KOR (κ opioid receptor) = molecular target: T1, KOR (κ opioid receptor) (Homo sapiens, UniProt P41145); experiment: KOR radioligand binding ([3H]-U69593, HEK293 cell homogenates); conditions: for inhibition at 10 µM: Percent inhibition at 10,000 nM
T1 construct: expressed in transfected cells; host or cells: HEK293 (stably transfected)
T1 sequence (P41145 whole entry): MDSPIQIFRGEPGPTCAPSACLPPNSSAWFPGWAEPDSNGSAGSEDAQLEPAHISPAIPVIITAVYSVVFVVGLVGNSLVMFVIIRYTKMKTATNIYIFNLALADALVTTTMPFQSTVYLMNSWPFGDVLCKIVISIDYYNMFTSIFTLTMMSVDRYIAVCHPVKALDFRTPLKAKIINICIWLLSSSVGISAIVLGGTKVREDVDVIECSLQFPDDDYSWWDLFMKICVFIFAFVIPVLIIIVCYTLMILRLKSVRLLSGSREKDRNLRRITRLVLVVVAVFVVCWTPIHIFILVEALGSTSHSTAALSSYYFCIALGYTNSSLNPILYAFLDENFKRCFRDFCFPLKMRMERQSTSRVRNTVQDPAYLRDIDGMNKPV

MOR (μ opioid receptor) = molecular target: T2, MOR (μ opioid receptor) (Homo sapiens, UniProt P35372); experiment: MOR radioligand binding ([3H]-DAMGO, HEK293 cell homogenates); conditions: Percent inhibition at 10,000 nM; [3H]-DAMGO
T2 construct: expressed in transfected cells; host or cells: HEK293
T2 sequence (P35372 whole entry, species assumed): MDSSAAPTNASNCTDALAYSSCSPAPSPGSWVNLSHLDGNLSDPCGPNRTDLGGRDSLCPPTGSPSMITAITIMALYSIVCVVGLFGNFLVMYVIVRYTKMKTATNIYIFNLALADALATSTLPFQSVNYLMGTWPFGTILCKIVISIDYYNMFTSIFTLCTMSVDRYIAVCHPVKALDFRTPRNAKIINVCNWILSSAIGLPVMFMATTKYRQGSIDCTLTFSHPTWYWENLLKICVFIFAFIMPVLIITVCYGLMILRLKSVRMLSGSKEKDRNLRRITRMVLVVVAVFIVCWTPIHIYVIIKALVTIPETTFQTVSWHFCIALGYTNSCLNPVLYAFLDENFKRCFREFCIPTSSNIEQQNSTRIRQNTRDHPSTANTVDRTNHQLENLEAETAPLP

DOR (δ opioid receptor) = molecular target: T3, DOR (δ opioid receptor) (Homo sapiens, UniProt P41143); experiment: DOR radioligand binding ([3H]-DADLE, HEK293 cell homogenates); conditions: Percent inhibition at 10,000 nM; [3H]-DADLE
T3 construct: expressed in transfected cells; host or cells: HEK293
T3 sequence (P41143 whole entry): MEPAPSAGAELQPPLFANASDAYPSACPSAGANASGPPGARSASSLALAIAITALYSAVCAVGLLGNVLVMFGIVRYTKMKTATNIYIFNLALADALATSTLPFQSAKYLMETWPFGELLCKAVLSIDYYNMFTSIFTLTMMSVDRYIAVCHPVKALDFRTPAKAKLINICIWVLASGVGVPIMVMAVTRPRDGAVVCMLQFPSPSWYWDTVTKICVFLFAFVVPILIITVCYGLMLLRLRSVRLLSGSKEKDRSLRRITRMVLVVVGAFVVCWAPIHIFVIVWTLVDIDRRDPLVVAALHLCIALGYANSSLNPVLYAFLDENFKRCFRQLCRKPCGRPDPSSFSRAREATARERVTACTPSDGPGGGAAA

RAW macrophages [1] = experiment: NO production (Griess assay), LPS/IFNγ-activated RAW264.7 macrophages; format: cell-based, mouse; conditions: Mus musculus, Macrophage, 24 h
RAW macrophages [2] = experiment: Cell viability (CellTiter-Glo), RAW macrophages; format: cell-based, mouse; conditions: for Cell viability (%) RAW macrophages 50 μM: CellTiter-Glo
Mouse microglia = experiment: Cell viability (CellTiter-Glo), mouse microglia; format: cell-based; conditions: 50 μM; for Cell viability (%) Mouse microglia 50 μM: CellTiter-Glo
Outline: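 Mouse microglia (1×10^6 cells/mL) activated with 50 ng/ml LPS plus 150 U/mL IFNγ, incubated with compounds ~24 h at 37° C. Viability of remaining cells read by CellTiter-Glo luminescence after supernatant removal for Griess NO assay; […].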

HEK293 = experiment: Viability assay (CellTiter-Glo), HEK293; format: cell-based, human; conditions: for Cell viability (%) HEK293 120 μM: CellTiter-Glo; for toxicity at 120 μM (in words): HEK293, 120 μM
[3] = concentration-dependent, [3H]-U69593, read-out: KOR (Ki)

Structure (SMILES)	Ki (KOR (κ opioid receptor))	inhibition at 10 µM (KOR (κ opioid receptor); [3H]-U69593)	inhibition at 10 µM (MOR (μ opioid receptor))	inhibition at 10 µM (DOR (δ opioid receptor))	inhibition at 10 µM (RAW macrophages [1])	inhibition at 50 µM (RAW macrophages [1])	Cell viability (%) RAW macrophages 50 μM (RAW macrophages [2])	Cell viability (%) Mouse microglia 50 μM (Mouse microglia)	Cell viability (%) HEK293 120 μM (HEK293)	Ki (KOR (κ opioid receptor); [3])	toxicity at 50 μM (in words) (RAW macrophages [2]; macrophages)	toxicity at 50 μM (in words) (Mouse microglia; microglia)	toxicity at 120 μM (in words) (HEK293)
C[C@H]1N=C(c2ccccc2F)c2cc(Br)ccc2-n2cnc(-c3cnco3)c21 [GL-III-36]	0.246 µM	88%	0%	12%	0%	58 ± 9%	81 ± 5%	97 ± 9%	80 ± 9%	–	–	–	–
C[C@H]1N=C(c2ccccc2F)c2cc(Cl)ccc2-n2cnc(C(=O)O)c21 [GL-III-54]	–	22%	0%	0%	6 ± 4%	–	99 ± 12%	82 ± 6%	96 ± 12%	–	–	–	–
C[C@H]1N=C(c2ccccc2F)c2cc(Br)ccc2-n2cnc(C(=O)N(C)C)c21 [GL-III-69]	–	75%	0%	10%	0%	–	98 ± 10%	87 ± 6%	73 ± 10%	0.511 µM	–	–	–
C#Cc1ccc2c(c1)C(c1ccccc1F)=N[C@H](C)c1c(-c3cnco3)ncn1-2 [GL-III-73]	0.449 µM	74%	12%	4%	1 ± 6%	–	100 ± 4%	80 ± 9%	86 ± 6%	–	–	–	–
C[C@H]1N=C(c2ccccc2F)c2cc(C3CC3)ccc2-n2cnc(C(=O)N(C)C)c21 [GL-III-70]	–	68%	0%	50%	2 ± 2%	–	100 ± 2%	86 ± 2%	86 ± 12%	0.8 µM	–	–	–
CCOC(=O)c1ncn2c1[C@@H](C)N=C(c1ccccn1)c1cc(Br)ccc1-2 [GL-II-06]	–	79%	11%	9%	4 ± 2%	–	100 ± 10%	87 ± 13%	83 ± 13%	0.401 µM	–	–	–
Cc1noc(-c2ncn3c2[C@@H](C)N=C(c2ccccc2F)c2cc(Br)ccc2-3)n1 [GL-III-60, (R)-5-(8-Bromo-6-(2-fluorophenyl)-4-methyl-4H-benzo[f]imidazo[1,5-a][1,4]diazepin-3-yl)-3-methyl-1,2,4-oxadiazole]	0.232 µM	87%	26%	18%	0%	39 ± 8%	86 ± 12%	100 ± 9%	64 ± 6%	–	–	–	–
CCc1noc(-c2ncn3c2[C@@H](C)N=C(c2ccccc2F)c2cc(C4CC4)ccc2-3)n1 [GL-IV-03, (R)-5-(8-Cyclopropyl-6-(2-fluorophenyl)-4-methyl-4H-benzo[f]imidazo[1,5-a][1,4]diazepin-3-yl)-3-ethyl-1,2,4-oxadiazole]	0.232 µM	91%	25%	67%	75%	–	97 ± 7%	100 ± 5%	47 ± 5%	–	no significant toxicity	no significant toxicity	some cytotoxicity
C#Cc1ccc2c(c1)C(c1ccccc1F)=N[C@H](C)c1c(-c3nc(C)no3)ncn1-2 [MP-IV-004]	0.444 µM	86%	7%	10%	0%	51 ± 7%	83 ± 12%	100 ± 5%	40 ± 8%	–	–	–	–
C#Cc1ccc2c(c1)C(c1ccccc1F)=N[C@H](C)c1c(C(=O)NC(C)C)ncn1-2 [GL-III-66]	–	63%	0%	0%	6 ± 4%	–	100 ± 9%	85 ± 15%	46 ± 4%	0.233 µM	–	–	–
CCOC(=O)c1ncn2c1[C@@H](C)N=C(c1ccccc1F)c1cc(C3CC3)ccc1-2 [GL-III-42]	0.174 µM	86%	0%	13%	0%	–	100 ± 6%	82 ± 10%	62 ± 11%	–	–	–	–
Cc1noc(-c2ncn3c2[C@@H](C)N=C(c2ccccc2F)c2cc(C4CC4)ccc2-3)n1 [GL-III-63, (R)-5-(8-Cyclopropyl-6-(2-fluorophenyl)-4-methyl-4H-benzo[f]imidazo[1,5-a][1,4]diazepin-3-yl)-3-methyl-1,2,4-oxadiazole]	0.678 µM	78%	8%	31%	13 ± 4%	62 ± 12%	87 ± 15%	100 ± 8%	18 ± 4%	–	–	–	toxic
CCNC(=O)c1ncn2c1[C@@H](C)N=C(c1ccccc1F)c1cc(C3CC3)ccc1-2 [GL-III-68]	–	88%	0%	10%	5 ± 1%	–	100 ± 8%	83 ± 3%	56 ± 11%	–	–	–	–
C[C@@H]1N=C(c2ccccc2F)c2cc(Br)ccc2-n2cnc(-c3cnco3)c21 [GL-III-76]	0.221 µM	83%	3%	0%	0%	–	100 ± 5%	80 ± 2%	59 ± 4%	–	–	–	–
C#Cc1ccc2c(c1)C(c1ccccc1F)=N[C@@H](C)c1c(-c3cnco3)ncn1-2 [GL-III-78]	0.451 µM	74%	10%	9%	0%	–	97 ± 2%	79 ± 6%	56 ± 8%	–	–	–	–
C#Cc1ccc2c(c1)C(c1ccccc1F)=N[C@H](C)c1c(C(=O)NC)ncn1-2 [MP-III-022]	–	80%	3%	22%	9 ± 5%	51 ± 7%	100 ± 11%	86 ± 2%	75 ± 13%	0.381 µM	–	–	–
